This is an account of results in ChEMBL document CHEMBL1147828, “Discovery of indole-containing tetracycles as a new scaffold for androgen receptor ligands” (Bioorg Med Chem Lett, 2006).

pIC50: −log10 of the molar value. Calls of active or inactive are those of the source. No cut-off for these calls is given here.

The target of one assay is T1, Androgen receptor (Rattus norvegicus) (UniProt P15207).
T1 sequence (whole entry): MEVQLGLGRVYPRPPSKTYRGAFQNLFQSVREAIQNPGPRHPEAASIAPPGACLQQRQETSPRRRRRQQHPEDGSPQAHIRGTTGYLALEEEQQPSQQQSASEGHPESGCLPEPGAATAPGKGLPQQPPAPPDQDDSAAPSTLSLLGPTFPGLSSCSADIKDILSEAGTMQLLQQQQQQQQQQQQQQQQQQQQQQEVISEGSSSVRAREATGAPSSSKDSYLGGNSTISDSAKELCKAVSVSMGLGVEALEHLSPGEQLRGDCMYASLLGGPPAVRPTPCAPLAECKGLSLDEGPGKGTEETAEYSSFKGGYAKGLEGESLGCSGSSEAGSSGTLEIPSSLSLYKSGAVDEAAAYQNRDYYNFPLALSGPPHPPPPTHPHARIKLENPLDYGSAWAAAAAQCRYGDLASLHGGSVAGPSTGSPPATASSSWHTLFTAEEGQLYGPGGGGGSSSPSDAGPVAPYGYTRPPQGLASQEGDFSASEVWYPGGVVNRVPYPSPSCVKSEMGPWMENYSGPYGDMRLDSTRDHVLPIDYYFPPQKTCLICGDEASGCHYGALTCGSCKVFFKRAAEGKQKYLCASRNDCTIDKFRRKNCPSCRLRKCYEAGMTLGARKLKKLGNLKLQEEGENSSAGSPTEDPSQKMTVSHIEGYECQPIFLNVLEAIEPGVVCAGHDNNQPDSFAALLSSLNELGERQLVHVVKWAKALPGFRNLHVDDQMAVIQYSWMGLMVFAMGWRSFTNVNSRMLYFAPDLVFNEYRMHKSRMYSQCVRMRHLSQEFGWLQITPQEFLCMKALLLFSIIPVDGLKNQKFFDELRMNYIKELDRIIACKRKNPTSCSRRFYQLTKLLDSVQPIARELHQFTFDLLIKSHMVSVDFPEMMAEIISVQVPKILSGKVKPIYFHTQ
Put plainly: Inhibition of rat AR-mediated reporter gene expression in COS7 cells at 10 uM. The assay is classed as cell-based. Conditions: COS-7. For orientation: In a reporter assay the amount or activity of a reporter protein is the signal.
Consider `Cn1c2c(c3cc(F)ccc31)CSc1cc(F)ccc1-2`, for which the inhibition came out at 48%.

In a further assay the target is T1, Androgen receptor (Rattus norvegicus). The assay can be described thus: Inhibition of rat AR-mediated reporter gene expression in COS7 cells at 3 uM. The format is cell-based. Conditions: COS-7.
As for `Cn1c2c(c3cc(O)ccc31)CCc1nccnc1-2`, the inhibition is 33%.
Regarding `Cn1c2c(c3cc(O)ccc31)CCC1=CC(=O)CCC12C` (configuration not stated), the inhibition is 42%.
In the case of `Cn1c2c(c3ccc(O)cc31)CCc1ncccc1-2`, the inhibition came out at 29%.

The target in another assay is T2, Androgen receptor (Rattus norvegicus, UniProt P15207).
T2 sequence (P15207 whole entry): T1 sequence (whole entry)
Experiment: not given
Settings: not given
Take `Cn1c2c(c3cc(O)ccc31)CSc1cc(Br)ccc1-2`: the pIC50 is 5.55.
Turning to `Cn1c2c(c3cccc(O)c31)CSc1cc(F)ccc1-2`, the pIC50 is 5.42.
`CC(=O)Oc1ccc2c(c1)c1c(n2C)-c2ccccc2SC1` showed a pIC50 of 6.06.
`Cn1c2c(c3cc(O)ccc31)CCc1ncccc1-2` gave a pIC50 of 7.54.
On the same count and under the same terms, next, `Cn1c2c(c3ccc(O)cc31)C(C)(C)Sc1cc(O)ccc1-2`: 5.47.
The compound `Cn1c2c(c3cc(O)ccc31)CSc1ccc(F)cc1-2` gave a pIC50 of 6.96.
`Oc1ccc2[nH]c3c(c2c1)CSc1ccccc1-3` gave a pIC50 of 5.35.
The same measure, in the same setting: under `CC(=O)n1c2c(c3cc(O)ccc31)CSc1ccccc1-2` stands 6.00; under `Cn1c2c(c3cc(O)ccc31)CSc1cc(F)ccc1-2`, 6.20; under `Cn1c2c(c3cc(Cl)ccc31)CSc1ccccc1-2`, 5.82.
Regarding `Cn1c2c(c3cc(O)ccc31)CCc1sccc1-2`, the pIC50 is 6.24.
Compound `Cn1c2c(c3cc(F)ccc31)CSc1ccccc1-2` showed a pIC50 of 5.43.
The same measure, in the same setting: under `Cn1c2c(c3cc(O)ccc31)CSc1cc(O)ccc1-2` stands 5.68; under `Cn1c2c(c3cc(O)ccc31)CCc1cnccc1-2`, 6.03.
The same measure, in the same setting: under `Cn1c2c(c3ccc(O)cc31)CCCc1ccccc1-2` stands 6.04; under `Cn1c2c(c3ccc(O)cc31)CSc1ccccc1-2`, 6.89.
In turn, `Cn1c2c(c3ccc(O)cc31)CCSc1ccccc1-2` had a pIC50 of 5.30.
`CCn1c2c(c3cc(O)ccc31)CSc1ccccc1-2` gave a pIC50 of 5.64.
`COc1ccc2c(c1)SCc1c-2n(C)c2ccc(O)cc12` had a pIC50 of 5.52.
Still for that read-out and setting: under `Cn1ccc2c1CCc1c-2n(C)c2ccc(O)cc12` stands 6.43.
`Cn1c2c(c3cc(O)ccc31)CSc1ccccc1-2` showed a pIC50 of 6.96.
In turn, `Cn1c2c(c3cc(O)ccc31)CSc1ncccc1-2` gave a pIC50 of 7.28.
For `Cn1c2c(c3cc(F)ccc31)CSc1cc(C(F)(F)F)ccc1-2`, the negative-log IC50 (pIC50) was 5.55.
`Cn1c2c(c3ccc(O)cc31)CCc1ccccc1-2` had a pIC50 of 7.52.

A further assay has as its target T1, Androgen receptor (Rattus norvegicus). The assay can be described thus: Inhibition of rat AR-mediated reporter gene expression in COS7 cells. Conditions: COS-7.
Consider `CN(C)CCn1c2c(c3cc(O)ccc31)CSc1ccccc1-2`, for which the outcome was inactive.
With `Cn1c2c(c3ccc(O)cc31)SCc1ccccc1-2`, the outcome was inactive.
For `CN1C(=O)CCC2(C)c3c(c4cc(O)ccc4n3C)CCC12` (configuration not stated), the outcome was inactive.
Turning to `Cn1c2c(c3ccc(O)cc31)CCC1=CC(=O)CCC12C` (configuration not stated), the result was inactive.
For `Cn1c2c(c3cc(C#N)ccc31)CSc1ccccc1-2`, the result was inactive.
Turning to `CN1Cc2c(n(C)c3cc(O)ccc23)-c2ccccc21`, the result was inactive.
On to `Cn1c2c(c3ccccc31)CSc1ccccc1-2`, for which the outcome was inactive.
As for `Oc1ccc2nc3c(c(O)c2c1)CCc1ccccc1-3`, the outcome was inactive.
Regarding `Cn1c2c(c3cc(Br)ccc31)CSc1ccccc1-2`, the outcome was inactive.
On to `Cn1c2c(c3cc(O)ccc31)C[S+]([O-])c1ccccc1-2` (configuration not stated), for which the outcome was inactive.
In the case of `COc1ccc2c(c1)c1c(n2C)-c2ccccc2SC1`, the result was inactive.
On to `CN1c2ccc(O)cc2C(=O)C2CCc3ccccc3C21` (configuration not stated), for which the outcome was inactive.
Take `Cc1ccc2c(c1)c1c(n2C)-c2ccccc2SC1`: the outcome was inactive.
With `Cn1c2c(c3cc(O)ccc31)CS(=O)(=O)c1ccccc1-2`, the outcome was inactive.

In general, inhibition refers to the share of the control response that was lost under treatment. A low value points to little suppression. Usually pIC50 stands for the negative decadic logarithm of the IC50, by convention in mol/L. Read a high pIC50 as a small IC50.
